Source: ChEMBL document CHEMBL3244276, “Hydrogen-bonding parameter and its significance in quantitative structure--activity studies” (J Med Chem, 1977)

Assays:
[1] = octanol/water
[2] = physchem; settings: octanol/water
[3] = octanol/water; remark: listed apart in the source
[4] = octanol/water; remark: listed apart in the source
[5] = physchem
[6] = octanol/water; remark: listed apart in the source
[7] = octanol/water; remark: listed apart in the source

Row | Compound | logP [2] | other results
1 | N#Cc1ccccc1 [BENZONITRILE] | 1.56 | pKHB: 0.79; logP [1]: 0.96
2 | CCCCCO [1-PENTANOL] |  | logP [3]: 0.36
3 | OCCO [ETHYLENE GLYCOL] |  | logP [4]: -2.28; logP ([5]; octanol/water): -3.31
4 | OCCCCCCO [1,6-HEXANEDIOL] |  | logP ([5]; oil/water): -2.17
5 | CNC(=O)Oc1cccc(C#N)c1 | 0.98 | 
6 | Oc1ccc(I)cc1 | 2.91 | 
7 | CNC(=O)Oc1cccc(C)c1 [METOLCARB] | 1.7 | 
8 | O=C(O)COc1cccc(C(=O)O)c1 | 1.11 | 
9 | Oc1ccccc1 [PHENOL] |  | logP [6]: 0.36; logP [1]: -0.89; logP [7]: 1.3
10 | CNC(=O)Oc1ccc(C(C)C)cc1 | 2.8 | 
11 | CNC(=O)Oc1ccc(C#N)cc1 [4-CYANOPHENYL METHYLCARBAMATE] | 0.95 | 
12 | CNC(=O)Oc1cccc([N+](=O)[O-])c1 | 1.39 | 
13 | CCC(=O)O [PROPIONIC ACID] |  | logP [3]: -0.8
14 | CNC(=O)Oc1ccccc1[N+](=O)[O-] | 1.02 | 
15 | Cc1ccc(S(N)(=O)=O)cc1 [P-TOLUENESULFONAMIDE] | 0.82 | 
16 | NS(=O)(=O)c1cccc([N+](=O)[O-])c1 | 0.55 | 
17 | Clc1ccccc1 [CHLOROBENZENE] |  | pKHB: -0.8; logP [1]: 2.98
18 | CC(O)C(C)O (stereo not drawn) |  | logP ([5]; oil/water): -2.47
19 | CNC(=O)Oc1ccccc1C#N | 0.86 | 
20 | CN(C)C(=O)c1ccccc1 | 0.62 | pKHB: 2.22
21 | CCCCCC(=O)O [HEXANOATE] |  | logP [3]: 0.83
22 | Cc1ccc(OCC(=O)O)cc1 | 1.78 | 
23 | CCOC(N)=O |  | logP ([5]; oil/water): -1.13
24 | Cc1cccc(O)c1 [METACRESOL] | 2.02 | 
25 | C[C@H](O)CCO [1,3-BUTANEDIOL] |  | logP ([5]; oil/water): -2.37

Row | Compound | logP [2] | other results
26 | CCCCC(=O)O [VALERIC ACID] |  | logP ([5]; oil/water): 0.48
27 | CCC(N)=O [PROPIONAMIDE] |  | logP ([5]; oil/water): -2.44
28 | Cc1ccccc1 [TOLUENE] |  | pKHB: -0.29
29 | NS(=O)(=O)c1ccc([N+](=O)[O-])c(C(F)(F)F)c1 | 1.73 | 
30 | CC(=O)c1ccccc1 [ACETOPHENONE] |  | pKHB: 1.13; logP [1]: 1.14
31 | O=C(O)Cc1ccccc1 [PHENYLACETIC ACID] | 1.41 | 
32 | C1N2CN3CN1CN(C2)C3 [METHENAMINE] |  | logP ([5]; oil/water): -3.68
33 | OCc1ccccc1 [BENZYL ALCOHOL] |  | logP [1]: -0.76
34 | COP(=O)(OC)Oc1ccccc1 | 1.22 | pKHB: 2.21
35 | Oc1cccc(I)c1 | 2.93 | 
36 | CNC(=O)Oc1ccccc1OC(C)C [PROPOXUR] | 1.52 | 
37 | CC(O)CO (stereo not drawn) [PROPYLENE GLYCOL] |  | logP ([5]; oil/water): -2.77
38 | CNC(=O)Oc1ccccc1I | 1.96 | 
39 | O=[N+]([O-])c1ccccc1 [NITROBENZENE] |  | logP [6]: 2.93; logP [1]: 1.49
40 | CNC(=O)Oc1cccc(C(C)C)c1 | 2.63 | 
41 | Nc1ccccc1 [ANILINE] |  | logP [1]: -0.05
42 | CNC(=O)Oc1ccc(I)cc1 | 2.46 | 
43 | CNC(=O)Oc1cccc(N(C)C)c1 | 1.43 | 
44 | CNC(=O)Oc1ccc(C(C)=O)cc1 | 1.01 | 
45 | COc1cccc(O)c1 [1-hydroxy-3-methoxybenzene] | 1.58 | 
46 | CNC(=O)Oc1cccc(Cl)c1 | 2.03 | 
47 | CCOC(C)=O [ETHYL ACETATE] |  | logP ([5]; oil/water): 0.4
48 | NS(=O)(=O)c1ccc(Cl)cc1 [P-CHLOROBENZENESULFONAMIDE] | 0.84 | 
49 | CNc1ccc(S(N)(=O)=O)cc1 | 0.08 | 
50 | Oc1cccc(Br)c1 | 2.63 | 

Row | Compound | logP [2] | other results
51 | O=C(O)COc1ccc(O)cc1 | 0.65 | 
52 | NS(=O)(=O)c1ccccc1 [BENZENESULFONAMIDE] | 0.31 | 
53 | CCOc1ccccc1OC(=O)NC | 1.24 | 
54 | COc1ccccc1 [ANISOLE] |  | pKHB: 0.02
55 | NS(=O)(=O)c1cccc(Cl)c1 | 1.29 | 
56 | CN(C)Cc1ccccc1 | 1.98 | pKHB: 1.56; logP [1]: 1.44
57 | NCc1ccccc1 [BENZYLAMINE] |  | logP [1]: -0.15
58 | O=C(O)COc1cccc(C(F)(F)F)c1 | 2.33 | 
59 | O=C(O)COc1ccc(F)cc1 | 1.41 | 
60 | O=C1CCC(=O)N1 [SUCCINIMIDE] |  | logP ([5]; oil/water): -2.31
61 | CNC(=O)Oc1cccc(Br)c1 | 2.25 | 
62 | CCCC(N)=O [BUTYRAMIDE] |  | logP ([5]; oil/water): -2.02
63 | O=Cc1ccccc1 [BENZALDEHYDE] |  | pKHB: 0.8; logP [1]: 1.11
64 | CC1OC(C)OC(C)O1 (stereo not drawn) |  | logP ([5]; oil/water): 0.28
65 | NS(=O)(=O)c1ccc(Br)cc1 | 1.36 | 
66 | N#Cc1ccc(S(N)(=O)=O)cc1 | 0.23 | 
67 | OCCCCO [1,4-BUTANEDIOL] |  | logP [4]: -1.72; logP ([5]; octanol/water): -2.68
68 | CC(C)=O [ACETONE] |  | logP ([5]; oil/water): -0.7
69 | O=C(O)COc1cccc(Cl)c1 | 2.02 | 
70 | CNC(=O)Oc1cccc(OC)c1 | 1.3 | 
71 | COc1cccc(OCC(=O)O)c1 | 1.38 | 
72 | CNC(=O)Oc1cccc(C=O)c1 | 0.92 | 
73 | COc1ccc(S(N)(=O)=O)cc1 | 0.47 | 
74 | CC(=O)Nc1cccc(OCC(=O)O)c1 | 0.47 | 
75 | Cc1cccc(S(N)(=O)=O)c1 | 0.85 | 

Row | Compound | logP [2] | other results
76 | CC(=O)N(C)c1ccccc1 | 1.12 | pKHB: 2; logP [1]: -0.4
77 | CCOc1ccc(OC(=O)NC)cc1 | 1.64 | 
78 | CC(C)CC(N)=O [ISOVALERAMIDE] |  | logP ([5]; oil/water): -1.64
79 | CCOc1ccccc1 [PHENETOLE] | 2.51 | pKHB: 0.22
80 | NS(=O)(=O)c1ccc([N+](=O)[O-])cc1 | 0.64 | 
81 | CNC(=O)Oc1cccc(C(C)=O)c1 | 0.9 | 
82 | CS(=O)(=O)c1cccc(OCC(=O)O)c1 | 0 | 
83 | CNC(=O)Oc1ccc(C=O)cc1 | 0.99 | 
84 | O=C(O)COc1cccc([N+](=O)[O-])c1 | 1.37 | 
85 | CC(=O)c1ccc(S(N)(=O)=O)cc1 | 0.2 | 
86 | CS(=O)(=O)c1ccccc1 [METHYLPHENYLSULFONE] | 0.47 | pKHB: 1.05
87 | CNC(=O)Oc1ccccc1OC | 0.81 | 
88 | COC(N)=O [METHYL CARBAMATE] |  | logP ([5]; oil/water): -1.6
89 | COc1ccc(O)cc1 [MEQUINOL] | 1.34 | 
90 | CCc1ccccc1 [ETHYLBENZENE] |  | pKHB: -0.34
91 | CCOCC [ETHER] |  | logP ([5]; oil/water): 0.38
92 | CCc1cccc(OCC(=O)O)c1 | 2.23 | 
93 | Oc1cccc(F)c1 | 1.93 | 
94 | O=C(O)COc1ccccc1 | 1.26 | 
95 | Brc1ccccc1 [BROMOBENZENE] |  | pKHB: -0.84; logP [1]: 3.08
96 | CN(C)c1ccccc1 |  | pKHB: 0.45; logP [1]: 2.38
97 | CC(=O)OCC(COC(C)=O)OC(C)=O [TRIACETIN] |  | logP ([5]; oil/water): -0.36
98 | CNC(=O)Oc1ccc([N+](=O)[O-])cc1 [4-NITROPHENYL METHYLCARBAMATE] | 1.46 | 
